Counter-ions that a name gives are not always drawn.
tested on: hDMFa myofibroblast cells

SMILES | Compound Myofibroblast Cytotoxicity Activity
Cc1ccc(O)cc1 [Cmpd 762, p-Cresol] | ++
CC(=O)c1c(C)c2cnc(Nc3ccc(N4CCNCC4)cn3)nc2n(C2CCCC2)c1=O.Cl [Cmpd 763, PD 0332991 (Palbociclib) HCl] | ++++
OC1(c2ccc(Cl)c(C(F)(F)F)c2)CCN(CCCC(c2ccc(F)cc2)c2ccc(F)cc2)CC1 [Cmpd 765, Penfluridol] | +++
CC(C)(S)[C@@H](N)C(=O)O [Cmpd 766, Penicillamine] | ++
N=C(N)c1ccc(OCCCCCOc2ccc(C(=N)N)cc2)cc1.O=S(=O)(O)CCO.O=S(=O)(O)CCO [Cmpd 768, Pentamidine isethionate] | +++
CC(=O)CCCCn1c(=O)c2c(ncn2C)n(C)c1=O [Cmpd 769, Pentoxifylline] | ++++
C1CCc2nnnn2CC1 [Cmpd 770, Pentylenetetrazole] | ++++
OCCN1CCN(CCCN2c3ccccc3Sc3ccc(Cl)cc32)CC1 [Cmpd 773, Perphenazine] | +++++
COS(=O)(=O)[O-].C[n+]1c2ccccc2nc2ccccc21 [Cmpd 775, Phenazine methosulfate] | +++++
CC(COc1ccccc1)N(CCCl)Cc1ccccc1.Cl (stereo not drawn) [Cmpd 776, Phenoxybenzamine HCl] | ++
O=C1NC(=O)C(c2ccccc2)(c2ccccc2)N1 [Cmpd 778, Phenytoin sodium] | ++
O=C(O)c1ccccc1C(=O)O [Cmpd 781, Phthalic acid] | ++
O=C(O)CCCNC(=O)c1cccnc1 [Cmpd 783, Pikamilone] | ++
CCc1ccc(CCOc2ccc(CC3SC(=O)NC3=O)cc2)nc1 (stereo not drawn) [Cmpd 785, Pioglitazone HCl] | +++
O=C([O-])C[C@H](O)C[C@H](O)/C=C/c1c(C2CC2)nc2ccccc2c1-c1ccc(F)cc1.O=C([O-])C[C@H](O)C[C@H](O)/C=C/c1c(C2CC2)nc2ccccc2c1-c1ccc(F)cc1.[Ca+2] [Cmpd 786, Pitavastatin Calcium] | +++
Nc1cccc2c1C(=O)N(C1CCC(=O)NC1=O)C2=O (stereo not drawn) [Cmpd 789, Pomalidomide (CC-4047)] | ++
C[n+]1ccccc1/C=N/O [Cmpd 792, Pralidoxime Iodide] | ++
CC(=O)Oc1cc2c(s1)CCN(C(C(=O)C1CC1)c1ccccc1F)C2.Cl (stereo not drawn) [Cmpd 794, Prasugrel hydrochloride] | ++
COc1cc(NC(C)CCCN)c2ncccc2c1.O=P(O)(O)O.O=P(O)(O)O (stereo not drawn) [Cmpd 796, Primaquine Diphosphate] | +++
CN1CCN(CCCN2c3ccccc3Sc3ccc(Cl)cc32)CC1 [Cmpd 797, Prochlorperazine] | +++++

SMILES | Compound Myofibroblast Cytotoxicity Activity
CC(=O)[C@H]1CC[C@H]2[C@@H]3CCC4=CC(=O)CC[C@]4(C)[C@H]3CC[C@]12C [Cmpd 799, Progesterone] | +++
CCCOc1ccc2c(c1)CC[C@@H]1[C@@H]2CC[C@]2(C)[C@@H](OC)CC[C@@H]12 [Cmpd 800, Promestriene] | ++
CC(CN1c2ccccc2Sc2ccccc21)N(C)C (stereo not drawn) [Cmpd 801, Promethazine HCl] | ++
O=C(O)c1ccc(O)c(O)c1 [Cmpd 804, Protocatechuic acid] | ++
CC(O)Cn1cnc2c1c(=O)n(C)c(=O)n2C (stereo not drawn) [Cmpd 805, Proxyphylline] | ++
COCCCN1CCC(NC(=O)c2cc(Cl)c(N)c3c2OCC3)CC1 [Cmpd 806, Prucalopride] | +++
Cc1ncc(CO)c(CO)c1O [Cmpd 809, Pyridoxine] | ++
Oc1ccccc1O [Cmpd 810, Pyrocatechol] | ++
N.S=C(S)N1CCCC1 [Cmpd 811, Pyrrolidinedithiocarbamate ammonium] | ++
CC(C)(C)c1cc(NC(=O)Nc2ccc(-c3cn4c(n3)sc3cc(OCCN5CCOCC5)ccc34)cc2)no1 [Cmpd 815, Quizartinib (AC220)] | ++++
COc1cc(Nc2ncc(F)c(Nc3ccc4c(n3)N(COP(=O)([O-])[O-])C(=O)C(C)(C)O4)n2)cc(OC)c1OC.[Na+].[Na+] [Cmpd 816, R788 disodium] | ++
CC(=O)SCC(Cc1ccccc1)C(=O)NCC(=O)OCc1ccccc1 (stereo not drawn) [Cmpd 817, Racecadotril] | ++
Cc1cn(-c2cc(NC(=O)c3ccc(C)c(Nc4nccc(-c5cnccn5)n4)c3)cc(C(F)(F)F)c2)cn1 [Cmpd 818, Radotinib(IY-5511)] | ++++
O=C(c1ccc(OCCN2CCCCC2)cc1)c1c(-c2ccc(O)cc2)sc2cc(O)ccc12 [Cmpd 819, Raloxifene HCl] | ++++
CO[C@H]1C[C@@H]2CC[C@@H](C)[C@@](O)(O2)C(=O)C(=O)N2CCCC[C@H]2C(=O)O[C@H]([C@H](C)C[C@@H]2CC[C@@H](O)[C@H](OC)C2)CC(=O)[C@H](C)/C=C(\C)[C@@H](O)[C@@H](OC)C(=O)[C@H](C)C[C@H](C)/C=C/C=C/C=C/1C [Cmpd 820, Rapamycin (Sirolimus)] | ++++
C#CCN[C@@H]1CCc2ccccc21 [Cmpd 821, Rasagiline] | ++
CCOc1cc(CC(=O)N[C@@H](CC(C)C)c2ccccc2N2CCCCC2)ccc1C(=O)O [Cmpd 826, Repaglinide] | +++
O=c1ccc2[n+]([O-])c3ccc(O)cc3oc-2c1 [Cmpd 827, Resazurin sodium salt] | ++
Oc1ccc(C=Cc2cc(O)cc(O)c2)cc1 [Cmpd 829, Resveratrol] | ++
CCCCCCCCCCCCCCCC(=O)OC/C=C(C)/C=C/C=C(C)/C=C/C1=C(C)CCCC1(C)C [Cmpd 830, Retinyl (Vitamin A) Palmitate] | ++

SMILES | Compound Myofibroblast Cytotoxicity Activity
CO[C@H]1/C=C/O[C@@]2(C)Oc3c(C)c(O)c4c(O)c(cc(O)c4c3C2=O)NC(=O)/C(C)=C\C=C\[C@H](C)[C@H](O)[C@@H](C)[C@@H](O)[C@@H](C)[C@H](OC(C)=O)[C@@H]1C [Cmpd 833, Rifamycin sodium salt] | ++
CO[C@H]1/C=C/O[C@@]2(C)Oc3c(C)c(O)c4c(O)c(c(/C=N/N5CCN(C6CCCC6)CC5)c(O)c4c3C2=O)NC(=O)/C(C)=C\C=C\[C@H](C)[C@H](O)[C@@H](C)[C@@H](O)[C@@H](C)[C@H](OC(C)=O)[C@@H]1C [Cmpd 834, Rifapentine] | +++
N=C(N/N=C/c1ccc(Cl)cc1)N/N=C/c1ccc(Cl)cc1 [Cmpd 838, Robenidine hydrochloride] | ++
C/C=C1\NC(=O)[C@H]2CSSCC/C=C/[C@H](CC(=O)N[C@H](C(C)C)C(=O)N2)OC(=O)[C@H](C(C)C)NC1=O [Cmpd 839, Romidepsin (FK228,depsipeptide)] | ++
CCCN1CCCC[C@H]1C(=O)Nc1c(C)cccc1C.CS(=O)(=O)O [Cmpd 840, Ropivacaine Mesilate] | ++
CN(C(=O)c1c(O)c2ccccc2n(C)c1=O)c1ccccc1 [Cmpd 841, Roquinimex] | ++
CC(C)c1nc(N(C)S(C)(=O)=O)nc(-c2ccc(F)cc2)c1/C=C/[C@@H](O)C[C@@H](O)CC(=O)[O-].CC(C)c1nc(N(C)S(C)(=O)=O)nc(-c2ccc(F)cc2)c1/C=C/[C@@H](O)C[C@@H](O)CC(=O)[O-].[Ca+2] [Cmpd 842, Rosuvastatin Calcium] | +++
NC(=O)c1cn(Cc2c(F)cccc2F)nn1 [Cmpd 843, Rufinamide] | +++
Cc1cncc(CN2CCC(=C3c4ccc(Cl)cc4CCc4cccnc43)CC2)c1.O=C(O)/C=C/C(=O)O [Cmpd 844, Rupatadine Fumarate] | +++
C[C@H]1O[C@@H](O[C@H]2CC[C@@]3(C)[C@@H](CC[C@]4(C)[C@@H]3C=C[C@]35OC[C@@]6(CCC(C)(C)C[C@H]63)[C@@H](O)C[C@]54C)[C@]2(C)CO)[C@H](O)[C@@H](O[C@@H]2O[C@H](CO)[C@@H](O)[C@H](O)[C@H]2O)[C@H]1O [Cmpd 846, Saikosaponin A] | +++++
CC(C)(C)NCC(O)c1ccc(O)c(CO)c1 (stereo not drawn) [Cmpd 847, Salbutamol] | ++
OCc1cc(C(O)CNCCCCCCOCCCCc2ccccc2)ccc1O (stereo not drawn) [Cmpd 849, Salmeterol xinafoate] | +++
C[n+]1cc2c3c(ccc2c2ccc4cc5c(cc4c21)OCO5)OCO3 [Cmpd 850, Sanguinarine] | +++++
C[n+]1cc2c3c(ccc2c2ccc4cc5c(cc4c21)OCO5)OCO3 [Cmpd 851, Sanguinarine chloride] | ++++
CC(C)(C)NC(=O)[C@@H]1C[C@@H]2CCCC[C@@H]2CN1C[C@@H](O)[C@H](Cc1ccccc1)NC(=O)[C@H](CC(N)=O)NC(=O)c1ccc2ccccc2n1 [Cmpd 852, Saquinavir mesylate] | ++++
N#C[C@@H]1C[C@@H]2C[C@@H]2N1C(=O)[C@@H](N)C12CC3CC(CC(O)(C3)C1)C2 [Cmpd 854, Saxagliptin hydrate] | ++
COc1cc2ccc(=O)oc2cc1O [Cmpd 857, Scopoletin] | ++
O=C(O)CCCCCCCCC(=O)O.O=C(O)CCCCCCCCC(=O)O [Cmpd 858, sebacate (decanedioate)] | ++
Clc1ccc(C(Cn2ccnc2)OCc2csc3c(Cl)cccc23)c(Cl)c1 (stereo not drawn) [Cmpd 860, Sertaconazole nitrate] | +++++
CN[C@H]1CC[C@@H](c2ccc(Cl)c(Cl)c2)c2ccccc21 [Cmpd 861, Sertraline HCl] | ++++

— US20260102359A1, “COMBINATION TREATMENT OF DERMAL AND TRANSDERMAL FIBROTIC DISEASES, DISORDERS AND ASSOCIATED PAIN AND INFLAMMATION” (ERESINA, LLC, priority 2022, published 2026)
